Test results from US6403626B1, “Benzimidazole derivatives” (Synaptic Pharmaceutical Corporation, priority 1994, dated 2002).
Read-outs that look alike come from different tables or passages of the source.

What was measured:
[1] = molecular target: T1, α2B Human Adrenergic Receptor (Homo sapiens, UniProt P18089); experiment: Equilibrium competition binding, [3H] rauwolscine, membranes of transfected Y-1 cells
T1 construct: expressed in transfected cells; host or cells: Y-1 cells
T1 sequence (P18089 1-450): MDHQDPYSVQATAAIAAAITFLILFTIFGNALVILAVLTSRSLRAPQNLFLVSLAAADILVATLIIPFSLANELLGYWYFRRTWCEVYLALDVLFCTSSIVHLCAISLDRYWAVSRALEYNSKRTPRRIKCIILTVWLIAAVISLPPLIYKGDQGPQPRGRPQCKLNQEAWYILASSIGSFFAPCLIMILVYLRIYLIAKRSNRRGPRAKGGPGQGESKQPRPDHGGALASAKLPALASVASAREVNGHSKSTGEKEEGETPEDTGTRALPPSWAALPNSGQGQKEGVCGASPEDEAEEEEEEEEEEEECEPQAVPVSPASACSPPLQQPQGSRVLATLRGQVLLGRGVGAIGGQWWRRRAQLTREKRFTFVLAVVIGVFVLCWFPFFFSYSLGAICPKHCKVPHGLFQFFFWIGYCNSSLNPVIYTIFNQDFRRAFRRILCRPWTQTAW
Protocol: (§1) Binding and functional assays were performed using stably transfected human alpha adrenergic receptors. Equilibrium competition binding assays were performed with membrane preparations from cultured LM(tk-) cells stably transfected with the cloned human adrenoceptor subtypes except for α2b, which was expressed in Y-1 cells, using [^3H] prazosin for α1 receptors and [^3H] rauwolscine for α2 receptors.
(§2) Stable cell lines were selected as described above.
(§3) Transfected cells from culture flasks were scraped into 5 ml of 5 mM Tris-HCl, 5 mM EDTA, pH 7.5, and lysed by sonication. The cell lysates were centrifuged at 1000 rpm for 5 min at 4° C., and the supernatant was centrifuged at 30,000×g for 20 min at 4° C. The pellet was suspended in 50 mM Tris-HCl, 1 mM MgCl2, and 0.1% ascorbic acid at pH 7.5. Binding of α2 antagonist [^3H] rauwolscine ([…]) to membrane preparations of LM(tk-) cells was done in a final volume of 0.25 ml and incubated at 37° C. for 20 min. Nonspecific binding was determined in the presence of 10 μM phentolamine. The reaction was stopped by filtration through GF/B filters using a cell harvester.

[2] = molecular target: T2, α1B Human Adrenergic Receptor (Homo sapiens, UniProt P35368); experiment: Equilibrium competition binding, [3H] prazosin, membranes of transfected LM(tk-) cells
T2 construct: The entire coding region of α1B(1563 bp); expressed in transfected cells; host or cells: LM(tk-) cells
T2 sequence (P35368 1-520): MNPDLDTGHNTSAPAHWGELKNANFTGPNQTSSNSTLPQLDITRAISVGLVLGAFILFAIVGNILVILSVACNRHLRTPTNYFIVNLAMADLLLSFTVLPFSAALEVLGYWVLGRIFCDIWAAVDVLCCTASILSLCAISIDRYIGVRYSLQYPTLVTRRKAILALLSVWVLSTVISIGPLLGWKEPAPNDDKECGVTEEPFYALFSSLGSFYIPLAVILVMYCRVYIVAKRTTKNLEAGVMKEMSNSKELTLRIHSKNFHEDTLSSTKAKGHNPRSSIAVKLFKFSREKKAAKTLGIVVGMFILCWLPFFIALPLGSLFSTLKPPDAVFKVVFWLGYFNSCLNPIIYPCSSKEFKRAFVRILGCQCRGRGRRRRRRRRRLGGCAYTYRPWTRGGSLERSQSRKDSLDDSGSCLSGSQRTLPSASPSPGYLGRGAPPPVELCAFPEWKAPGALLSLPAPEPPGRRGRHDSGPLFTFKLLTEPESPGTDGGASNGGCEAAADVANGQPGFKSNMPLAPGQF
Protocol: as §1, §3
The construct involved ligating the full-length containing EcoRI brainstem cDNA fragment from ZapII into the expression vector. The stable cell lines were selected as described above.

[3] = molecular target: T3, α1C Human Adrenergic Receptor (Homo sapiens, UniProt P35348); experiment: as above; settings: cloned human receptor, [3H] prazosin; for Ki: read-out: pKi Alpha-1 C (converted)
T3 construct: expressed in transfected cells; host or cells: LM(tk-) cells
T3 sequence (P35348 1-466): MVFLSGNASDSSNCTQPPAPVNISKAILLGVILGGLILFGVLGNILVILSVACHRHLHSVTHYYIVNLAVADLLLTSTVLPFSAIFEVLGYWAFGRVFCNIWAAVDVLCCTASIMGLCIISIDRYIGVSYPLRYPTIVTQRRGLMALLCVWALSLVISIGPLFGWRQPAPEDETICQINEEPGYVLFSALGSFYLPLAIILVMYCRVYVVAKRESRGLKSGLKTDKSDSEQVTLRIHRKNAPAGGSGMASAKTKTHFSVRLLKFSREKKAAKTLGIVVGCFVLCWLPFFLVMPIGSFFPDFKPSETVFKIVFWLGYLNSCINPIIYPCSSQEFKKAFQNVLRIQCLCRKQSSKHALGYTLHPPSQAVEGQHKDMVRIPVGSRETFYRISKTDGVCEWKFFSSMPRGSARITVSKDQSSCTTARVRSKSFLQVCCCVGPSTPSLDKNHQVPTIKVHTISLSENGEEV
Protocol: as §1, §3
The construct involved ligation three partial overlapping fragments: a 5′ 0.6 kb HincII genomic clone, a central 1.8 EcoRI hippocampal cDNA clone, and a 3′ 0.6 Kb PstI genomic clone. The hippocampal cDNA fragment overlaps with the 5′ and 3′ genomic clones so that the HincII and PstI sites at the 5 and 3′ ends of the cDNA clone, respectively, were utilized for ligation. This full-length clone was cloned into the KpnI site of the expression vector, using the 5′ and 3′ KpnI sites of the fragment, derived from vector (i.e., pBluescript) and 3′-untranslated sequences, respectively. Stable cell lines were selected as described above.

[4] = molecular target: T4, α1A Human Adrenergic Receptor (Homo sapiens, UniProt P25100); experiment: as above
T4 construct: expressed in transfected cells; host or cells: LM(tk-) cells
T4 sequence (P25100 1-572): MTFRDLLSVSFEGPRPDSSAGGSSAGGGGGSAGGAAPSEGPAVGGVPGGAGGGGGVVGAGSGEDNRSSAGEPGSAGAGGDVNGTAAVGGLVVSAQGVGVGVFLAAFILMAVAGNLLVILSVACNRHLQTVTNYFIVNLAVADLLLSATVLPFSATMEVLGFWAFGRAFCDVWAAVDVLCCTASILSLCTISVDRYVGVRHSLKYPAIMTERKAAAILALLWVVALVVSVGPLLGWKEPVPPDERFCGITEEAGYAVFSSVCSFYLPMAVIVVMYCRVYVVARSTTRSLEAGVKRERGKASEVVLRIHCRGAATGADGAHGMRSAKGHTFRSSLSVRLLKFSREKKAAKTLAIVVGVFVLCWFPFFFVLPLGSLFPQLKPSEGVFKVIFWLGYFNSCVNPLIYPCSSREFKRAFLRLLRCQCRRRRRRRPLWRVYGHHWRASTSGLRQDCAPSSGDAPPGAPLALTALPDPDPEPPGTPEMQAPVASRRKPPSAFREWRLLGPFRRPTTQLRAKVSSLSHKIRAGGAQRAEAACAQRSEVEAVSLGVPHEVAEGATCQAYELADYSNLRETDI
Protocol: as §1, §3, §2

[5] = molecular target: T5, α2C Human Adrenergic Receptor (Homo sapiens, UniProt P18825); experiment: Equilibrium competition binding, [3H] rauwolscine, membranes of transfected LM(tk-) cells
T5 sequence (P18825 1-462): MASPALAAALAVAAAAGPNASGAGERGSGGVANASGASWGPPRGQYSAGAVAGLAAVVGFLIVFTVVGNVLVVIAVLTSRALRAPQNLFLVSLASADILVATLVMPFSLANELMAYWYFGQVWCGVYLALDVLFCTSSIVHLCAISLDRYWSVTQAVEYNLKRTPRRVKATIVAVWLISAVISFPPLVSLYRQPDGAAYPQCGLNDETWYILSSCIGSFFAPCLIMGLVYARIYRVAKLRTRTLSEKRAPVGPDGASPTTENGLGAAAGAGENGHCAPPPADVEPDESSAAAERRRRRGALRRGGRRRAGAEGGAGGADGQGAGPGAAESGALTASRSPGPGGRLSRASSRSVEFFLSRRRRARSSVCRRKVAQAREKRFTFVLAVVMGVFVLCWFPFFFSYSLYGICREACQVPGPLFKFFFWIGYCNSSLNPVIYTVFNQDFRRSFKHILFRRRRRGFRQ

[6] = molecular target: T1, α2B Human Adrenergic Receptor; assay type: cell-based
Protocol: as §1, §2
(§4) The agonist activity (expressed as pEC50) was measured as a function of the ability to inhibit the forskolin-stimulated synthesis of cyclic adenosine monophosphate (cAMP). The stably transfected cells were incubated in Ham's F10 with 5 mM theophylline, 10 mM HEPES, 10 μM pargyline, and/or appropriate concentrations of forskolin for 20 min at 37° C. in 5% CO2. The tested compounds were then added to a final concentration of 0.001 nM to 1 μM and incubated for an additional 15 min at 37° C. in 5% CO2. The medium was aspirated and the reaction was stopped by the addition of 100 mM HCl . […] The plates are stored at 4° C. for 15 min and assayed to determine the linear concentration of cAMP. The appropriate dilution is interpolated from the standard curve of cold cAMP. The assessment of cAMP formation is determined by radioimmunoassay (cAMP radioimmunoassay kit; Advanced Magnetics, Cambridge, Mass.). Radioactivity was quantified using a Packard COBRA Auto Gamma counter, equipped with data reduction software.

[7] = molecular target: T5, α2C Human Adrenergic Receptor; assay type: cell-based; design: The entire coding region of α2C (1383 bp), including 2 bp of 5′ UT and 400 bp of 3′ UT; expressed in transfected cells; host or cells: LM(tk-) cells; settings: for I.A Alpha-2 C: functional cAMP assay
Protocol: as §1
The insert housing this coding region was an @ 1.8 kb Ncol/EcoRI human spleen genomic fragment which was end-blunted by either T4 polymerase or Klenow fragment of DNA polymerase. Stable cell lines were selected as described above.
as §4

[8] = cloned human receptor, [3H] prazosin, read-out: pKi Alpha-1 B (converted)
[9] = cloned human receptor, [3H] rauwolscine
[10] = cloned human receptor, [3H] prazosin
[11] = cloned human receptor, [3H] rauwolscine, read-out: pKi Alpha-2 B (converted)

Row | SMILES | Ki [1] | Ki [2, 8] | Ki [3] | Ki [4] | Ki [5] | Ki [1, 11] | other results
1 | Cn1cnc2ccc(NC3=NCCN3)cc21 [Example 11, 3-Methyl-5-(2-imidazolin-2-ylamino)Benzimidazole] | 224 nM | 35500 nM | 5750 nM | 10000 nM | 1120 nM |  | 
2 | CCCn1cnc2c(Br)c(NC3=NCCN3)ccc21 [Example 14, 1-Propyl-4-bromo-5-(imidazolin-2-ylamino)Benzimidazole] |  |  |  |  |  |  | pKi Alpha-2 B [1, 9]: 6.66; pKi Alpha-1 B [2, 10]: 4.69; pKi Alpha-1 C [3]: 6.21; pKi Alpha-1 A [4, 10]: 5.63; pKi Alpha-2 C [5, 9]: 6.64
3 | CCCn1cnc2ccc(NC3=NCCN3)cc21 [Example 15, 3-Propyl-5-(2-imidazolin-2-ylamino)Benzimidazole] |  | 34700 nM | 4900 nM | 6460 nM | 871 nM | 724 nM | 
4 | CCCn1cnc2ccc(NC3=NCCN3)c(Br)c21 [Example 16, 3-Propyl-4-bromo-5-(2-imidazolin-2-ylamino)Benzimidazole] |  | 513 nM | 417 nM | 55 nM |  | 12.3 nM | 
5 | CC(C)n1cnc2cc(NC3=NCCN3)ccc21 [Example 17, 1-Isopropyl-5-(2-imidazolin-2-ylamino)Benzimidazole] | 661 nM |  | 9120 nM | 10500 nM | 832 nM |  | Ki [2]: 44700 nM
6 | CC(C)n1cnc2c(Br)c(NC3=NCCN3)ccc21 [Example 18, 1-Isopropyl-4-bromo-5-(2-imidazolin-2-ylamino)Benzimidazole] | 372 nM | 20000 nM | 891 nM | 2690 nM | 282 nM |  | 
7 | CC(C)n1cnc2ccc(NC3=NCCN3)cc21 [Example 20, 3-Isopropyl-5-(2-imidazolin-2-ylamino)Benzimidazole] |  | 58900 nM | 11200 nM | 14800 nM | 631 nM | 724 nM | 
8 | CC(C)n1cnc2ccc(NC3=NCCN3)c(Br)c21 [Example 21, 3-Isopropyl-4-bromo-5-(2-imidazolin-2-ylamino)Benzimidazole] |  | 4680 nM | 1200 nM | 741 nM |  | 21.4 nM | 
9 | CC(C)Cn1cnc2ccc(NC3=NCCN3)c(Br)c21 [Example 24, 3-Isobutyl-4-bromo-5-(2-imidazolin-2-ylamino)Benzimidazole] | 12.9 nM | 4900 nM | 251 nM | 309 nM |  |  | 
10 | Brc1cc(NC2=NCCN2)c(Br)c2[nH]cnc12 [Example 58, 4,7-Dibromo-5-(2-imidazolin-2-ylamino)Benzimidazole] | 174 nM |  |  |  | 30.9 nM |  | EC50 [6]: 28.2 nM; I.A Alpha-2 B [6]: 0.50; melting point: 320 to 321 °C; EC50 [7]: 3.24 nM; I.A Alpha-2 C [7]: 1.00
11 | Cc1cc(NC2=NCCN2)c(Br)c2[nH]cnc12 [Example 59, 4-Bromo-7-methyl-5-(2-imidazolin-2-ylamino)Benzimidazole] | 7.94 nM |  |  |  | 16.6 nM |  | EC50 [6]: 40.7 nM; I.A Alpha-2 B [6]: 0.90; melting point: 242 to 244 °C; EC50 [7]: 1.29 nM; I.A Alpha-2 C [7]: 1.00
